According to ChEMBL document CHEMBL1201862, “PubChem BioAssay data set” (2004):
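Step 1: Grow cells in 96-well plates. Step 2: Expose to compound for 48 hours at 5 concentrations. Step 3: Interpolate endpoints linearly; if unreached, use highest concentration. GI50 is the concentration that inhibits growth by half.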 The source made the active and inactive calls. No stated cut-off is given here; in the data, active = GI50 up to about 1.1 µM and inactive = higher.

Key:
Assay in all cases: DTP human tumour cell line panel, 48 h
[1] = system: HL-60
[2] = system: SF-268
[3] = system: NCI-H522
[4] = system: NCI-H23
[5] = system: MDA-N
[6] = system: SK-MEL-5
[7] = system: UACC-62
[8] = system: PC-3
[9] = system: T47D
[10] = system: SK-MEL-2
[11] = system: BT-549
[12] = system: UACC-257
[13] = system: IGROV-1
[14] = system: ACHN
[15] = system: HOP-92
[16] = system: KM12
[17] = system: TK-10
[18] = system: Malme-3M
[19] = system: SN12C
[20] = system: HCC 2998

Measured: GI50

Cc1cc2c(O)nc(N)nc2nc1C
inactive: [1] > 100 µM | [2] > 100 µM | [3] > 100 µM | [4] > 100 µM | [5] > 100 µM | [6] > 100 µM | [7] > 100 µM | [8] > 100 µM | [9] > 100 µM | [10] > 100 µM | [11] > 100 µM | [12] > 100 µM | [13] > 100 µM | [14] > 100 µM | [15] > 100 µM | [16] > 100 µM | [17] > 100 µM | [18] > 100 µM | [19] > 100 µM

O=C1c2ccccc2C(=O)c2c(NC(=O)c3ccc4c5c(ncnc35)-c3ccccc3C4=O)cccc21
inactive: [2] 97.5 µM | [3] > 100 µM | [4] 33.4 µM | [5] > 100 µM | [6] > 100 µM | [7] > 100 µM | [8] > 100 µM | [9] > 100 µM | [20] > 100 µM | [10] 89.3 µM | [11] 48 µM | [12] > 100 µM | [13] > 100 µM | [14] > 100 µM | [15] 53.3 µM | [16] > 100 µM | [17] 21.8 µM | [18] > 100 µM | [19] > 100 µM

CC(/C=N/N=C1NCCCCN1)=N\N=C1NCCCCN1
inactive: [2] > 100 µM | [3] > 100 µM | [4] > 100 µM | [5] 52.2 µM | [6] 49.2 µM | [7] > 100 µM | [8] 87.7 µM | [9] > 100 µM | [20] > 100 µM | [11] > 100 µM | [12] 47.6 µM | [13] > 100 µM | [14] > 100 µM | [15] 37.9 µM | [16] > 100 µM | [17] > 100 µM | [18] 35.8 µM | [19] > 100 µM

NCC(=O)Nc1ccccc1
inactive: [2] > 100 µM | [3] > 100 µM | [4] > 100 µM | [5] > 100 µM | [6] > 100 µM | [7] > 100 µM | [8] > 100 µM | [9] > 100 µM | [20] > 100 µM | [10] 87.7 µM | [11] > 100 µM | [12] > 100 µM | [13] > 100 µM | [14] > 100 µM | [15] > 100 µM | [16] > 100 µM | [17] > 100 µM | [18] > 100 µM | [19] > 100 µM

CC(C)Oc1ccc2c(c1)OCC1Cc3ccccc3OC21 (stereo not drawn)
inactive: [1] > 100 µM | [2] > 100 µM | [3] 79.1 µM | [4] 89.9 µM | [5] 49.2 µM | [6] 23 µM | [7] > 100 µM | [8] > 100 µM | [9] 55.2 µM | [20] 96.8 µM | [10] > 100 µM | [11] 58.2 µM | [12] 33.7 µM | [13] > 100 µM | [15] > 100 µM | [16] > 100 µM | [17] 51.3 µM | [18] > 100 µM | [19] > 100 µM

CCOC(=O)c1nc2cc(F)c(F)cc2nc1NCc1cc(OC)c(OC)c(OC)c1
inactive: [1] > 100 µM | [2] > 100 µM | [3] > 100 µM | [4] > 100 µM | [5] > 100 µM | [6] 76.7 µM | [7] 67.1 µM | [8] > 100 µM | [9] > 100 µM | [10] > 100 µM | [11] > 100 µM | [12] > 100 µM | [13] > 100 µM | [14] > 100 µM | [15] 50.7 µM | [16] > 100 µM | [17] > 100 µM | [18] > 100 µM | [19] > 100 µM

O=c1nc(N2CCCCC2)sc2[nH]c3ccccc3c12
inactive: [1] > 100 µM | [2] 54.3 µM | [3] > 100 µM | [4] 12.2 µM | [5] > 100 µM | [6] > 100 µM | [7] > 100 µM | [8] > 100 µM | [9] > 100 µM | [10] > 100 µM | [11] > 100 µM | [12] > 100 µM | [13] 78 µM | [14] > 100 µM | [15] 55.3 µM | [16] > 100 µM | [17] 66.2 µM | [18] 68.4 µM | [19] > 100 µM

COC(=O)c1c(O)ccc2c1c1c(n2Cc2ccccc2)C(=O)c2ccccc2C1=O
inactive: [1] 18.3 µM | [2] 14.8 µM | [3] 11 µM | [4] 15.3 µM | [5] 20.1 µM | [6] 16.1 µM | [8] 13.7 µM | [9] 12.9 µM | [20] 5.01 µM | [10] 14 µM | [11] 16.6 µM | [12] 17.6 µM | [13] 12.6 µM | [14] 12.2 µM | [15] 13 µM | [16] 12.9 µM | [17] 17.1 µM | [18] 28.8 µM | [19] 13.9 µM

CCn1c(=O)c2c3cc(O)ccc3oc2c2ccc(O)cc21
inactive: [2] 27.5 µM | [3] 19.3 µM | [4] 41.3 µM | [5] 30 µM | [6] 17 µM | [7] 20.3 µM | [8] 31.1 µM | [9] 12.6 µM | [20] 19.3 µM | [11] 17.4 µM | [12] 76.6 µM | [13] 42.6 µM | [14] 21.3 µM | [15] 26.2 µM | [16] 31.8 µM | [17] 24.8 µM | [18] 32.7 µM | [19] 29.2 µM

O=C1Cc2c(-c3ccccc3)cc(-c3ccc4ccccc4c3)nc2-c2ccccc2N1
inactive: [2] 4.29 µM | [3] 3.25 µM | [4] 6.4 µM | [5] 8.53 µM | [6] 4.74 µM | [7] 10.7 µM | [8] 15.7 µM | [9] 18 µM | [20] 22.6 µM | [10] 43.9 µM | [11] 27.4 µM | [12] 22.3 µM | [13] 1.93 µM | [14] 3.72 µM | [15] 4.05 µM | [16] 4.89 µM | [17] 12.3 µM | [18] 7.06 µM | [19] 6.22 µM

NS(=O)(=O)c1nc(S(=O)(=O)O)c2[nH]cnc2n1
inactive: [2] > 100 µM | [3] > 100 µM | [4] > 100 µM | [5] > 100 µM | [6] > 100 µM | [7] > 100 µM | [8] > 100 µM | [9] > 100 µM | [10] > 100 µM | [11] > 100 µM | [12] > 100 µM | [13] > 100 µM | [14] > 100 µM | [15] > 100 µM | [16] > 100 µM | [17] > 100 µM | [18] > 100 µM | [19] > 100 µM

CC(=O)/C(=C\Nc1c(C)n(C)n(C)c1=O)C(=O)c1ccccc1
inactive: [1] > 50 µM | [2] > 50 µM | [3] > 50 µM | [4] > 50 µM | [5] > 50 µM | [6] > 50 µM | [7] > 50 µM | [8] > 50 µM | [9] > 50 µM | [20] > 50 µM | [10] > 50 µM | [11] > 50 µM | [12] > 50 µM | [13] > 50 µM | [14] > 50 µM | [15] 26.5 µM | [17] > 50 µM | [18] > 50 µM | [19] > 50 µM

Nc1nc(=S)n(-c2ccc(Cl)cc2)c2nc3ccccc3cc12
inactive: [1] > 100 µM | [2] 36.2 µM | [3] 45.3 µM | [4] 56.9 µM | [5] 90.8 µM | [6] 51.8 µM | [7] 40.9 µM | [8] 46.8 µM | [9] 18.7 µM | [20] 64.6 µM | [10] 49.7 µM | [11] 19.1 µM | [12] > 100 µM | [13] 1.69 µM | [14] 18.8 µM | [15] 9.82 µM | [16] 29.3 µM | [17] 28.7 µM | [18] 32.5 µM | [19] > 100 µM

CC(NC(=O)/C(=C/c1ccccc1)NC(=O)c1ccccc1)C(=O)O (stereo not drawn)
inactive: [1] 77.1 µM | [2] > 100 µM | [3] > 100 µM | [4] 47.4 µM | [5] 55.8 µM | [6] > 100 µM | [7] 57 µM | [8] > 100 µM | [9] 29.6 µM | [20] > 100 µM | [10] > 100 µM | [11] > 100 µM | [12] > 100 µM | [13] 21.3 µM | [14] 38.6 µM | [15] 33.1 µM | [16] 6.59 µM | [18] > 100 µM | [19] 92.3 µM

CCOC(=O)C1(NC(=O)OC(C)(C)C)CCc2[nH]oc(=O)c2C1 (stereo not drawn)
inactive: [1] > 100 µM | [3] > 100 µM | [4] > 100 µM | [5] > 100 µM | [6] > 100 µM | [7] > 100 µM | [8] > 100 µM | [9] > 100 µM | [20] > 100 µM | [10] > 100 µM | [11] > 100 µM | [12] > 100 µM | [13] > 100 µM | [14] > 100 µM | [15] > 100 µM | [16] 9.95 µM | [17] > 100 µM | [18] > 100 µM | [19] > 100 µM
